Assay results: patent publication US6737383B1, “Herbicidal oxadiazolidines” (priority 1999, dated 2004)

Tests used:
[1] = tested on: giant foxtail; test: Test B pre/postemergence giant foxtail; type: in vivo, Setaria faberii
In short: (§1)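 Herbicidal effect was estimated by eye on a ten-point control scale after plants spent twelve to sixteen days in a greenhouse following soil or foliar treatment. Foliar sprays targeted plants at one to four leaves; all doses were formulated in a non-phytotoxic solvent with surfactant.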

[2] = tested on: soybean; test: Test B pre/postemergence soybean; type: in vivo, Glycine max
In short: as §1

[3] = tested on: surinam grass; test: Test B pre/postemergence surinam grass; type: in vivo, Brachiaria decumbens
In short: as §1

[4] = tested on: wheat; test: Test B pre/postemergence wheat; type: in vivo, Triticum aestivum
In short: as §1

[5] = tested on: morningglory; test: Test B pre/postemergence morningglory; type: in vivo, Ipomoea hederacea
In short: as §1

[6] = tested on: corn; test: Test B pre/postemergence corn; type: in vivo, Zea mays
In short: as §1

[7] = tested on: rice; test: Test B flood test rice; type: in vivo, Oryza sativa; details: Pre-emergence
In short: (§2)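 Each value is a visual injury score relative to controls, with 10 meaning complete control and 0 no effect. Evaluation took place twelve to sixteen days after the 2-leaf-stage plants were treated and kept in the greenhouse.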

[8] = tested on: bedstraw; test: Test B pre/postemergence bedstraw; type: in vivo, Galium aparine
In short: as §1

[9] = tested on: cocklebur; test: Test B pre/postemergence cocklebur; type: in vivo, Xanthium strumarium
In short: as §1

[10] = tested on: wild oat; test: Test B pre/postemergence wild oat; type: in vivo, Avena fatua
In short: as §1

[11] = tested on: crabgrass; test: Test B pre/postemergence crabgrass; type: in vivo, Digitaria sanguinalis
In short: as §1

[12] = tested on: duck salad; test: Test B flood test duck salad; type: in vivo, Heteranthera limosa; details: Pre-emergence
In short: as §2

[13] = tested on: velvetleaf; test: Test B pre/postemergence velvetleaf; type: in vivo, Abutilon theophrasti
In short: as §1

[14] = tested on: purple nutsedge; test: Test B pre/postemergence purple nutsedge; type: in vivo, Cyperus rotundus
In short: as §1

[15] = tested on: smallflower flatsedge; test: Test B flood test smallflower flatsedge; type: in vivo, Cyperus difformis; details: Pre-emergence
In short: as §2

[16] = tested on: blackgrass; test: Test B pre/postemergence blackgrass; type: in vivo, Alopecurus myosuroides
In short: as §1

[17] = tested on: bamyardgrass; test: Test B flood test barnyardgrass; type: in vivo, Echinochloa crus-galli; details: Pre-emergence
In short: as §2

[18] = Postemergence, Rate 1000 g/ha, scale 0 to 10 (0 no effect, 10 complete control)
[19] = Preemergence, Rate 250 g/ha, scale of 0 to 10 where 0 is no effect and 10 is complete control
[20] = Preemergence, Rate 500 g/ha, scale of 0 to 10 where 0 is no effect and 10 is complete control
[21] = Rate 125 g/ha, Postemergence, scale of 0 to 10 where 0 is no effect and 10 is complete control
[22] = Rate 125 g/ha, Preemergence, scale of 0 to 10 where 0 is no effect and 10 is complete control
[23] = Rate 250 g/ha, Postemergence, scale of 0 to 10 where 0 is no effect and 10 is complete control
[24] = Rate 500 g/ha, Postemergence, scale 0 to 10, 0 no effect, 10 complete control
[25] = Rate 1000 g/ha, Preemergence, scale 0 to 10 (0 no effect, 10 complete control)
[26] = Rate 1000 g/ha, scale 0 to 10 (0 no effect, 10 complete control)
[27] = Rate 125 g/ha, flood test species, scale 0 to 10 where 0 is no effect and 10 is complete control
[28] = Rate 250 g/ha, flood-test species, scale 0 to 10, 0 is no effect, 10 is complete control
[29] = Rate 500 g/ha, flood test species, scale 0 to 10 (0 no effect, 10 complete control)

C=CCn1c(=O)on(C(=O)N(c2ccc(F)cc2)C(C)C(=O)OCC)c1=O (stereo not drawn) [Compound 279] was tested, and the “Giant foxtail plant response rating” value [1, 18] was 4, the “Giant foxtail plant response rating” value [1, 19] was 6 and the “Plant response rating, Giant foxtail” value [1, 20] was 7. The “Giant foxtail plant response rating” value [1, 21] was 0, the “Giant foxtail plant response rating” value [1, 22] was 3 and the “Plant response rating, Giant foxtail” value [1, 23] was 0. The “Giant foxtail plant response rating” value [1, 24] was 1, the “Plant response rating, Giant foxtail” value [1, 25] was 7 and the “Soybean plant response rating” value [2, 18] was 4. The “Soybean plant response rating” value [2, 19] was 0, the “Plant response rating, Soybean” value [2, 20] was 0 and the “Soybean plant response rating” value [2, 21] was 0. For the same molecule, the “Soybean plant response rating” value [2, 22] was 0, the “Plant response rating, Soybean” value [2, 23] was 2 and the “Soybean plant response rating” value [2, 24] was 4. For the same molecule, the “Plant response rating, Soybean” value [2, 25] was 0, the “B. signalgrass plant response rating” value [3, 18] was 0 and the “B. signalgrass plant response rating” value [3, 19] was 0. For the same molecule, the “Plant response rating, B. signalgrass” value [3, 20] was 0, the “B. signalgrass plant response rating” value [3, 21] was 0 and the “B. signalgrass plant response rating” value [3, 22] was 0. The “Plant response rating, B. signalgrass” value [3, 23] was 0, the “B. signalgrass plant response rating” value [3, 24] was 0 and the “Plant response rating, B. signalgrass” value [3, 25] was 0. For the same molecule, the “Wheat plant response rating” value [4, 18] was 1, the “Wheat plant response rating” value [4, 19] was 0 and the “Plant response rating, Wheat” value [4, 20] was 0. The “Wheat plant response rating” value [4, 21] was 0, the “Wheat plant response rating” value [4, 22] was 0 and the “Plant response rating, Wheat” value [4, 23] was 0. For the same molecule, the “Wheat plant response rating” value [4, 24] was 0, the “Plant response rating, Wheat” value [4, 25] was 0 and the “Morningglory plant response rating” value [5, 18] was 3. The “Morningglory plant response rating” value [5, 19] was 0, the “Plant response rating, Morningglory” value [5, 20] was 0 and the “Morningglory plant response rating” value [5, 21] was 1. The “Morningglory plant response rating” value [5, 22] was 0, the “Plant response rating, Morningglory” value [5, 23] was 2 and the “Morningglory plant response rating” value [5, 24] was 2. The “Plant response rating, Morningglory” value [5, 25] was 0, the “Corn plant response rating” value [6, 18] was 0 and the “Corn plant response rating” value [6, 19] was 0. For the same molecule, the “Plant response rating, Corn” value [6, 20] was 0, the “Corn plant response rating” value [6, 21] was 0 and the “Corn plant response rating” value [6, 22] was 0. For the same molecule, the “Plant response rating, Corn” value [6, 23] was 0, the “Corn plant response rating” value [6, 24] was 0 and the “Plant response rating, Corn” value [6, 25] was 0. For the same molecule, the “Rice plant response rating” value [7, 26] was 0, the “Rice plant response rating” value [7, 27] was 0 and the “Rice plant response rating” value [7, 28] was 0. The “Rice plant response rating” value [7, 29] was 0, the “Bedstraw plant response rating” value [8, 18] was 0 and the “Bedstraw plant response rating” value [8, 19] was 0. For the same molecule, the “Plant response rating, Bedstraw” value [8, 20] was 0, the “Bedstraw plant response rating” value [8, 21] was 0 and the “Bedstraw plant response rating” value [8, 22] was 0. The “Plant response rating, Bedstraw” value [8, 23] was 0, the “Bedstraw plant response rating” value [8, 24] was 0 and the “Plant response rating, Bedstraw” value [8, 25] was 0. For the same molecule, the “Cocklebur plant response rating” value [9, 18] was 0, the “Plant response rating, Cocklebur” value [9, 20] was 0 and the “Cocklebur plant response rating” value [9, 21] was 0. For the same molecule, the “Plant response rating, Cocklebur” value [9, 23] was 0, the “Cocklebur plant response rating” value [9, 24] was 0 and the “Plant response rating, Cocklebur” value [9, 25] was 0. The “Wild oats plant response rating” value [10, 18] was 0, the “Wild oats plant response rating” value [10, 19] was 0 and the “Plant response rating, Wild oats” value [10, 20] was 0. The “Wild oats plant response rating” value [10, 21] was 0, the “Plant response rating, Wild oats” value [10, 23] was 0 and the “Wild oats plant response rating” value [10, 24] was 0. For the same molecule, the “Plant response rating, Wild oats” value [10, 25] was 0, the “Crabgrass plant response rating” value [11, 19] was 0 and the “Plant response rating, Crabgrass” value [11, 20] was 1. The “Crabgrass plant response rating” value [11, 21] was 0, the “Crabgrass plant response rating” value [11, 22] was 0 and the “Plant response rating, Crabgrass” value [11, 23] was 0. The “Crabgrass plant response rating” value [11, 24] was 0, the “Plant response rating, Crabgrass” value [11, 25] was 4 and the “Ducksalad plant response rating” value [12, 26] was 0. The “Ducksalad plant response rating” value [12, 27] was 0, the “Ducksalad plant response rating” value [12, 28] was 0 and the “Ducksalad plant response rating” value [12, 29] was 0. For the same molecule, the “Velvetleaf plant response rating” value [13, 18] was 0, the “Velvetleaf plant response rating” value [13, 19] was 0 and the “Plant response rating, Velvetleaf” value [13, 20] was 0. The “Velvetleaf plant response rating” value [13, 21] was 0, the “Velvetleaf plant response rating” value [13, 22] was 0 and the “Plant response rating, Velvetleaf” value [13, 23] was 0. The “Velvetleaf plant response rating” value [13, 24] was 0, the “Plant response rating, Velvetleaf” value [13, 25] was 0 and the “Nutsedge plant response rating” value [14, 18] was 0. For the same molecule, the “Nutsedge plant response rating” value [14, 19] was 0, the “Nutsedge plant response rating” value [14, 21] was 0 and the “Plant response rating, Nutsedge” value [14, 23] was 0. The “Nutsedge plant response rating” value [14, 24] was 0, the “Plant response rating, Nutsedge” value [14, 25] was 0 and the “S. Flatsedge plant response rating” value [15, 26] was 0. The “S. Flatsedge plant response rating” value [15, 27] was 0, the “S. Flatsedge plant response rating” value [15, 28] was 0 and the “S. Flatsedge plant response rating” value [15, 29] was 0. For the same molecule, the “Blackgrass plant response rating” value [16, 18] was 6, the “Blackgrass plant response rating” value [16, 19] was 0 and the “Plant response rating, Blackgrass” value [16, 20] was 0. The “Blackgrass plant response rating” value [16, 21] was 0, the “Blackgrass plant response rating” value [16, 22] was 0 and the “Plant response rating, Blackgrass” value [16, 23] was 2. For the same molecule, the “Blackgrass plant response rating” value [16, 24] was 4, the “Plant response rating, Blackgrass” value [16, 25] was 0 and the “Barnyardgrass plant response rating” value [17, 26] was 0. The “Barnyardgrass plant response rating” value [17, 27] was 0, the “Barnyardgrass plant response rating” value [17, 28] was 0 and the “Barnyardgrass plant response rating” value [17, 29] was 0.
